Laboratory results as given in US4608378A, “Tetrahydroisoxazolo[4,5-c]pyridine derivatives useful in the treatment of malfunctions of the acetylcholine or muscarinic systems” (H. Lundbeck A/S, priority 1983, dated 1986).
Read-outs that look alike come from different tables or passages of the source.

Experiments:
[1] = target: muscarinic cholinergic receptors; experiment: 3H-PrBCM binding to muscarinic cholinergic receptors (brain); details: rat whole brain minus cerebellum; 1.5 nM 3H-PrBCM, 30° C.
Protocol: ^3 --H-PrBCM binding to muscarinic cholinergic receptors
Whole brain minus cerebellum of a rat was homogenized in 10 vol icecold 0.32M sucrose, pH 7.4. The homogenate was centrifuged at 600 g for 10 minutes and the supernatant at 25000 g for 55 min. at 4° C. with rehomogenization of the pellet in 0.32M sucrose. Incubation tubes in triplicate received at 30° C. test substance and tissue suspension. After 10 min. of incubation ligand (NEN,28-44 Ci/mmol) was added (final conc. of ^3 H-PrBCM: 1.5 nM). After 15 min. of incubation the reaction was stopped by addition of sodiumthiosulphate. The samples were filtered through Whatman GF/B filters (25 mm). The tubes and filters were rinsed twice with buffer. Non-specific binding was determined in the presence of 2.5 μM atropine. IC50 values were calculated by log probit analysis.

[2] = system: pain threshold in mice; experiment: Mouse Grid Shock (pain threshold); assay type: in vivo; details: ip, read-out: Grid shock MED
Protocol: The mouse grid consists of a perspex cage with wire grid bottom and a perspex lid, on which is placed a microphone sensitive to the frequency of mouse-squeak. A stimulator with motordriven potentiometer applies a sequence of square wave impulses of continuously increasing milliamperage to the grid. Frequence of impulses 20 cycles/sec., duration 5 msec. Milliamperage is recorded on a digital amperemter connected to the stimulator. Activation of the microphone by a mouse-squeak cuts off the current and the final milliamperage appear on the meter.
Five mice are used for each dose level. Each mouse serves as its own control. Prior to the administration of test substance the animals are placed on the grid one at a time, and the pain threshold is determined by increasing the current intensity until the mouse squeaks. The pain threshold may be read on the milliampermeter. Fifteen minutes and 30 minutes after administration of test substance the mice are tested again and the pain thresholds recorded.
Analgesic effect is present when the pain threshold is increased over the predosing value (control value). The results are stated as % increase in pain threshold calculated on the basis of the control value. The registration can also be done as an on-line procedure. In this case the punching instruction and punching cards will be provided automatically, and the results will be registered as a minimal effective dose (MED) determined after van der Waerden's X-test.

[3] = system: isoniazide-induced seizures in mice; experiment: Isoniazide antagonism (convulsions); assay type: in vivo; details: Mus musculus, ip, read-out: Isoniazide antagonism ED50
Protocol: Isoniazide 300 mg/kg s.c.
Five mice are used for each dose level. Immediately after administration of test substance, isoniazide 300 mg/kg is injected s.c. This dose of isoniazide induces intermittent tonic clonic seizures within 60 minutes.
The calculations are performed as an "on-line procedure" on the EDP-terminal. The results are recorded as % increase in time until convulsions occur and, ED50 values were determined.

[4] = system: muscarinic cholinergic receptors (guinea pig ileum); experiment: Muscarinic cholinergic agonism, guinea pig ileum; assay type: cell-based; details: Cavia porcellus; isolated guinea pig ileum, contraction, log-probit analysis; read-out: Musc. agonism ileum ED50
Protocol: Muscarinic cholinergic agonism, guinea pig ileum
Tyrode solution (NaCl 137 mM, KCl 2.7 mM, CaCl2 1.8 mM, MgCl2 1.1 mM, NaH2 PO4 0.32 mM, NaHCO3 4.8 mM, glucose 5.0 mM) foregassed with oxygen.
A guinea pig is killed by a blow on its head and exsanguinated. The caudal part (about 15 cm) of ileum is removed and cleaned in Tyrode solution. Three ileum pieces (2.5-3.0 cm long) are cut and placed separately in 10 ml organ baths containing Tyrode solution. Each specimen is fixed to a pin in the bottom of the organ bath and connected through a spring to a Grass FT 03 transducer (isotonic measurement). The specimens are kept under a tone of 1.0 g.
Concentration response curves to acetylcholine and test drugs are obtained by adding alternately acetylcholine and the test drugs in Tyrode solution to the both in 3-6 different concentrations. Each concentration is allowed to exert its maximal contracting effect before the tissue is washed and the next concentration is added.
From the concentration effect curves the […] values for acetylcholine and the test drugs are calculated by log-probit analysis.

[5] = system: heat stimulus reaction in rats; experiment: Hot Plate Test; assay type: in vivo; details: Rattus norvegicus, sc, 0.5 h, s.c., 55° C. hot plate, 30 minutes after injection
Protocol: A group of 10 rats was used for each dose. Each rat was placed on a 55° C. hot plate and the reaction time in seconds was recorded from the moment the rat was placed on the plate until the rat reacted to the heat stimulus. The criteria for reaction were licking of paws, lifting of legs or jumping. The rat was removed from the plate immediately after the reaction. The rat was rejected if the reaction time was more than 10 seconds. After control testing the test substance was injected subcutaneously. The rat was tested on the hot plate 30 minutes after the injection and the reaction times were recorded. A cut-off time of 30 seconds was used. The results were expressed as mean percent effect (MPE), and ED50 values were calculated.

[6] = cited from earlier work
[7] = system: AcCh receptors; details: background statement; cited from earlier work
[8] = peripheral administration; cited from earlier work
[9] = peripheral administration; cited from earlier work; remark: listed apart in the source
[10] = mice, minimal effective dose, increase in pain threshold, test substance i.p. (may be tested orally)
[11] = mice, test compound i.p., isoniazide 300 mg/kg s.c., time until convulsions

| SMILES | IC50 [1] | minimal effective dose [2, 10] | ED50 [3, 11] | EC50 [4] | ED50 [5] | hydrolysis of ester group in vivo [6] | AcCh agonist [7] | penetration of the BBB [8] | central effects [9] | minimal effective dose [2] | ED50 [3] |
| --- | --- | --- | --- | --- | --- | --- | --- | --- | --- | --- | --- |
| COc1noc2c1CNCC2C (racemic) [O,7-Dimethyl-THPO, 3-Methoxy-7-methyl-4,5,6,7-tetrahydroisoxazolo[4,5-c]pyridine] | 12 µM | 98 µmol/kg | 110 µmol/kg | 13 µM | > 98 µmol/kg | – | – | – | – | – | – |
| COC(=O)C1=CCCN(C)C1 [Arecoline, methyl 1-methyl-1,2,5,6-tetrahydropyridine-3-carboxylate] | – | – | – | – | – | very rapidly hydrolyzed in vivo | AcCh agonist | capable of penetrating the BBB after peripheral administration | very weak and frequently negligible central effects | – | – |
| COc1noc2c1CN(C)CC2 [O,5-Dimethyl-THPO, 3-Methoxy-5-methyl-4,5,6,7-tetrahydroixoxazolo[4,5-c]pyridine] | 27 µM | 49 µmol/kg | 29 µmol/kg | 0.83 µM | 99 µmol/kg | – | – | – | – | – | – |
| C=CCOc1noc2c1CNCC2 [O--Allyl-THPO, 3-Allyloxy-4,5,6,7-tetrahydroisoxazolo[4,5-c]pyridine] | 9.6 µM | 46 µmol/kg | 23 µmol/kg | > 13 µM | > 92 µmol/kg | – | – | – | – | – | – |
| c1ccc(COc2noc3c2CNCC3)cc1 [O--Benzyl-THPO, 3-Benzyloxy-4,5,6,7-tetrahydroisoxazolo[4,5-c]pyridine] | 32 µM | > 150 µmol/kg | 19 µmol/kg | > 13 µM | > 75 µmol/kg | – | – | – | – | – | – |
| CCCCOc1noc2c1CNCC2 [O--Butyl-THPO, 3-Butoxy-4,5,6,7-tetrahydroisoxazolo[4,5-c]pyridine] | 15 µM | > 170 µmol/kg | > 170 µmol/kg | > 13 µM | > 86 µmol/kg | – | – | – | – | – | – |
| CC=CCOc1noc2c1CNCC2 [O--Crotyl-THPO, 3-(2-Butenyloxy)-4,5,6,7-tetrahydroisoxazolo[4,5-c]pyridine] | 14 µM | 170 µmol/kg | < 43 µmol/kg | > 13 µM | > 87 µmol/kg | – | – | – | – | – | – |
| CCOc1noc2c1CN(C)CC2 [O--Ethyl-5-Methyl-THPO, 3-Ethoxy-5-methyl-4,5,6,7-tetrahydroisoxazolo[4,5-c]pyridine] | 2.4 µM | > 91 µmol/kg | 41 µmol/kg | 1.6 µM | > 91 µmol/kg | – | – | – | – | – | – |
| CCOc1noc2c1CNCC2 [O--Ethyl-THPO, 3-Ethoxy-4,5,6,7-tetrahydroisoxazolo[4,5-c]pyridine] | 6 µM | > 98 µmol/kg | 7.3 µmol/kg | 3.4 µM | > 98 µmol/kg | – | – | – | – | – | – |
| CC(C)COc1noc2c1CNCC2 [O--Isobutyl-THPO, 3-Isobutoxy-4,5,6,7-tetrahydroisoxazolo[4,5-c]pyridine] | > 13 µM | > 86 µmol/kg | 48 µmol/kg | > 13 µM | > 86 µmol/kg | – | – | – | – | – | – |
| CC(C)Oc1noc2c1CNCC2 [O--Isopropyl-THPO, 3-Isopropoxy-4,5,6,7-tetrahydroisoxazolo[4,5-c]pyridine] | 3.5 µM | > 46 µmol/kg | 19 µmol/kg | > 13 µM | > 91 µmol/kg | – | – | – | – | – | – |
| COc1noc2c1CN(Cc1ccccc1)CC2 [O--Methyl-5-Benzyl-THPO, 3-Methoxy-5-benzyl-4,5,6,7-tetrahydroisoxazolo[4,5-c]pyridine] | > 50 µM | > 71 µmol/kg | 71 µmol/kg | > 13 µM | > 71 µmol/kg | – | – | – | – | – | – |
| CCN1CCc2onc(OC)c2C1 [O--Methyl-5-Ethyl-THPO, 3-Methoxy-5-ethyl-4,5,6,7-tetrahydroisoxazolo[4,5-c]pyridine] | 15 µM | 84 µmol/kg | 84 µmol/kg | > 13 µM | – | – | – | – | – | – | – |
| COc1noc2c1CNCC2 [O--Methyl-THPO, 3-Methoxy-4,5,6,7-tetrahydroisoxazolo[4,5-c]pyridine] | 45 µM | 26 µmol/kg | 2.8 µmol/kg | 1.8 µM | 62 µmol/kg | – | – | – | – | – | – |
| C#CCOc1noc2c1CNCC2 [O--Propargyl-THPO, 3-(2-Propynyloxy)-4,5,6,7-tetrahydroisoxazolo[4,5-c]pyridine] | 5.8 µM | 11 µmol/kg | 3 µmol/kg | 1.2 µM | 86 µmol/kg | – | – | – | – | – | – |
| CCCOc1noc2c1CNCC2 [O--Propyl-THPO, 3-Propoxy-4,5,6,7-tetrahydroisoxazolo[4,5-c]pyridine] | 10 µM | > 91 µmol/kg | 50 µmol/kg | > 13 µM | > 91 µmol/kg | – | – | – | – | – | – |
| Oc1noc2c1CNCC2 [THPO, 3-Hydroxy-4,5,6,7-tetrahydroisoxazolo[4,5-c]pyridinium bromide, reference compound] | – | – | – | > 13 µM | > 90 µmol/kg | – | – | – | – | > 1500 µmol/kg | > 1500 µmol/kg |
